Structures are written as SMILES.

What all share (type): in vivo
Assay [1] concerns fall armyworm larvae (Spodoptera frugiperda). The experiment in a line: Spodoptera frugiperda spray test. Conditions: 168 h, read-out: activity (mortality). The method in brief: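 Larvae of fall armyworm placed on dried maize leaf sections previously sprayed with emulsified compound (acetone/DMF solvent, water with 1000 ppm emulsifier). Percent of caterpillars killed recorded on day 7, 0–100% scale.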

The test system of assay [2] is larvae of the southern green stink bug (Nezara viridula). As to the kind of experiment: Nezara viridula spray test. Particulars: 96 h, after 4 days; for mortality at 500 g/ha: application rate 500 g/ha; for mortality at 100 g/ha: application rate 100 g/ha. Put shortly:
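Larva-infested barley (Hordeum vulgare) plants received a spray of test solution prepared from an acetone/DMF concentrate diluted in emulsifier-containing water (1000 ppm). Percent kill read 4 days later; 0% means no stink bugs dead.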

For assay [3], the system named is brown planthopper (Nilaparvata lugens). The experiment in a line: Nilaparvata lugens spray test. Particulars: 96 h, after 4 days; for mortality at 500 g/ha: application rate 500 g/ha; for mortality at 100 g/ha: application rate 100 g/ha. The protocol:
Nilaparvata lugens—Spray Test
Solvent: 78.0 parts by weight of acetone • • 1.5 parts by weight of dimethylformamide
Emulsifier: alkylarylpolyglycol ether
To produce a suitable preparation of active compound, 1 part by weight of active compound is mixed with the stated amount of solvents and is diluted with water, containing an emulsifier concentration of 1000 ppm, to the desired concentration. Further test concentrations are prepared by dilution with emulsifier containing water.
Rice plants (Oryza sativa) are sprayed with a preparation of the active ingredient of the desired concentration and the plants are infested with the brown planthopper (Nilaparvata lugens).
After 4 days mortality in % is determined. 100% means all planthoppers have been killed and 0% means none of the planthoppers have been killed.

Assay [4] deals with larvae of the banded cucumber beetle (Diabrotica balteata). The experiment in a line: Diabrotica balteata spray test. Conditions: 168 h, after 7 days, read-out: activity (efficacy: seedlings grown); for pest or weed control at 100 g/ha: application rate 100 g/ha (=32 pg/well); for pest or weed control at 500 g/ha: application rate 500 g/ha (=160 pg/well). Put shortly: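 Read-out is % efficacy at day 7, 0% meaning no seedling growth and 100% growth equal to uninfested untreated controls. Test solutions (acetone/DMF concentrate diluted with water carrying 1000 ppm emulsifier) were sprayed onto 1-day-germinated wheat seeds, 5 per well, before infestation with 10-20 larvae.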

In assay [5] the test system is green peach aphid (Myzus persicae). The experiment in a line: Myzus persicae spray test. Particulars: 120 h, after 5 days; for mortality at 100 g/ha: application rate 100 g/ha; for mortality at 500 g/ha: application rate 500 g/ha. The method in brief: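 Chinese cabbage leaf disks carrying all instars of M. persicae sprayed with compound in acetone/DMF, diluted in water with 1000 ppm alkylarylpolyglycol ether emulsifier. Percent mortality scored after 5 days (100% = all aphids killed).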

Assay [6] relates to adult unfed cat fleas (Ctenocephalides felis). The experiment in a line: Ctenocephalides felis oral test. Particulars: 48 h, read-out: activity (mortality). The method in brief: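 About 20 adult unfed fleas fed through parafilm on cattle blood containing compound (DMSO stock diluted in blood), blood held at 37 °C and fleas at room temperature. Mortality (%) scored after 2 days.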

Assay [7] deals with Rhipicephalus microplus larvae (strain Parkhurst, resistant against synthetic pyrethroids). As to the kind of experiment: Rhipicephalus (Boophilus) microplus in-vitro contact test, larval cattle tick. Particulars: after 48 hours, read-out: activity (efficacy: larvae dead or moribund); for pest or weed control at 100 g/ha: application rate 1 pg/cm^2 (=100 g/ha); for pest or weed control at 500 g/ha: application rate 5 pg/cm^2 (=500 g/ha). The method in brief: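 Larvae (20-50 per tube) exposed to dry compound film on glass tube walls, 5 μg/cm^2 at 900 ppm, applied from acetone. After 48 h at 27° C./85% RH, tubes tapped and negative geotaxis scored; efficacy as percent dead or moribund larvae.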

Assay [8] relates to green peach aphid (Myzus persicae). As to the kind of experiment: Myzus persicae oral test. Conditions: 120 h, application rate 4 ppm, after 5 days. Put shortly:
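Five-day oral feeding assay measuring percent mortality of a mixed aphid population that draws compound-containing sugared IPL41 medium through sealing parafilm; the test preparation derives from 1 part compound per 100 parts acetone, diluted with water.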

Assay [9] relates to adult cat fleas (Ctenocephalides felis). The experiment in a line: Ctenocephalides felis in-vitro contact test, adult cat flea. Particulars: application rate 5 μg/cm^2 (=500 g/ha), after 48 hours, read-out: activity (efficacy: fleas dead or moribund). Put shortly:
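Efficacy, as % of fleas dead or moribund, was read 48 h after 5-10 adult cat fleas were confined in glass tubes whose walls carried dried compound film (900 ppm, […]). Fleas failing to escape upward from a 45-50° C plate within 5 min counted as dead or moribund.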

Assay [10] has as its system adult engorged female ticks (Rhipicephalus microplus). The experiment in a line: Rhipicephalus (Boophilus) microplus injection test. Particulars: 168 h, egg deposition after 7 days, read-out: activity (efficacy: infertile eggs); for pest or weed control at 0.02 mg: application rate 20 μg/animal. The method in brief:
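Abdominal injection, 1 μL compound/DMSO, n=5 engorged adult females; climate-chamber incubation. Readout d7: fertile egg laying; doubtful eggs held to hatch (~42 d). % efficacy = infertile eggs (100% all infertile).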

Assay [11] concerns Aedes aegypti strain MONHEIM. The experiment in a line: Aedes aegypti test (AEDSAE surface treatment & contact assay). Conditions: 24 hours after contact, read-out: efficacy (mortality); for mortality at 20 mg/m2: surface concentration 20 mg/m^2, exposure 30 minutes. Put shortly: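 Percent mortality was read 24 h after adult MONHEIM mosquitoes were held for 30 min on a tile treated with compound. Compound applied from acetone solution (2 mg/ml) containing 2000 ppm rapeseed oil methyl ester, after evaporation.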

In assay [12] the test system is Musca domestica strain WHO-N. As to the kind of experiment: Musca domestica test (MUSCDO surface treatment & contact assay). Particulars: 24 hours after contact, read-out: efficacy (mortality); for mortality at 4 mg/m2: surface concentration 4 mg/m^2, exposure 30 minutes; for mortality at 20 mg/m2: surface concentration 20 mg/m^2, exposure 30 minutes. As to the method:
Musca domestica Test (MUSCDO Surface Treatment & Contact Assay)
Solvent: Aceton+2000 ppm rapeseed oil methyl ester (RME)
In order to produce a sufficient, active ingredient containing solution it is necessary to solve the test compound in the solvent-mix (acetone at 2 mg/ml/RME 2000 ppm). This solution is pipetted onto a glazed tile and after evaporation of the acetone, adult flies of the species Musca domestica strain WHO—N are placed onto the dried surface. The exposure time is 30 minutes. Mortality in percent (%) is determined 24 hours after contact of the insects to the treated surface. 100% mortality means that all tested insects are dead, whereas 0% means that no insect died.

Consider `C[C@H](NC(=O)c1cc(C(F)(F)F)cc(S(C)(=O)=O)c1)c1nc(Cl)nn1-c1ncccn1` [I-96, N-[(1S)-1-(5-chloro-2-pyrimidin-2-yl-1,2,4-triazol-3-yl)ethyl]-3-methylsulfonyl-5-(trifluoromethyl)benzamide], for which, in assay [1], the mortality (as a rule, the percentage killed) at 100 g/ha worked out at 100%. Also, the mortality at 500 g/ha in assay [2] and in [3] was 100% throughout. Further, in assay [4], the pest or weed control at 100 g/ha came out at 100%.

Regarding `C[C@H](NC(=O)c1cc(OC(F)(F)F)cc(S(=O)(=O)C2CC2)c1)c1nc(C2CC2)nn1-c1ncc(Cl)cn1` [I-93], the mortality at 100 g/ha in [5] and in [1] was 100% in each case. The mortality at 500 g/ha amounted to 100% in assay [2] and 90% in assay [3]. In addition, in [4], the pest or weed control at 100 g/ha came to 100%.

Regarding `COc1nc([C@H](C)NC(=O)c2cc(Cl)cc(S(C)(=O)=O)c2)n(-c2ccc(C#N)cn2)n1` [I-7], the mortality at 100 ppm in [6] turned out to be 100%. Moreover, the mortality at 100 g/ha in assay [5], in [1] and in assay [2] was 100% each time. In addition, the mortality at 500 g/ha in [5] is 90%; in assay [1], 100%; in assay [2], 100%; in [3], 90%. Moreover, the pest or weed control at 100 g/ha in assay [7] and in [4] was 100% throughout. Also, the pest or weed control at 500 g/ha in assay [7] and in [4] was 100% throughout. In addition, the mortality at 4 ppm in assay [8] is 100%. For the same molecule, in assay [9], the pest or weed control at 5 µg/cm2 is 100%. The pest or weed control at 4 pg in [10] (application rate 4 pg/animal) is 100%. The pest or weed control at 0.02 mg in [10] amounted to 100%.

On to `COc1nc([C@H](C)NC(=O)c2cc(OC(F)(F)F)cc(S(C)(=O)=O)c2)n(-c2ncc(Cl)cn2)n1` [I-77], for which the mortality at 100 g/ha in assay [5] and in assay [1] was 100% in each case. Further, the mortality at 500 g/ha in [2] and in [3] was 100% in each case. Also, the pest or weed control at 100 g/ha in assay [4] was 100%.

In the case of `CC(NC(=O)c1cc(C(F)(F)F)cc(S(C)(=O)=O)c1)c1nc(Br)nn1-c1ncccn1` (stereo not shown) [I-38], the mortality at 100 g/ha in [5] was 90%; in assay [2], 100%; in [3] it was 100%. This molecule showed a mortality at 4 ppm in [8] of 100%. In addition, the pest or weed control at 100 g/ha in [4] turned out to be 100%.

In the case of `C[C@H](NC(=O)c1cc(C(F)(F)F)cc(S(C)(=O)=O)c1)c1nc(Br)nn1-c1ncccn1` [I-95, N-[(1S)-1-(5-bromo-2-pyrimidin-2-yl-1,2,4-triazol-3-yl)ethyl]-3-methylsulfonyl-5-(trifluoromethyl)benzamide], the mortality at 100 g/ha was 90% in assay [5] and 100% in [1]. In assay [3], this molecule returned a mortality at 500 g/ha of 100%. In addition, in assay [4], the pest or weed control at 100 g/ha was 100%.

For the molecule `C[C@H](NC(=O)c1cc(OC(F)(F)F)cc(S(C)(=O)=O)c1)c1nc(C2CC2)nn1-c1ncc(Cl)cn1` [I-82], the mortality at 100 g/ha in [5] is 90%; in [1] it was 100%; in assay [2] it was 100%. The results for the mortality at 500 g/ha in [2] and in [3] were 100% and 90%, respectively. In assay [8], the mortality at 4 ppm was determined as 100%. The pest or weed control at 100 g/ha in [4] worked out at 100%. The mortality at 20 mg/m2 in [11] and in assay [12] was 80 to 100% throughout. Further, the mortality at 4 mg/m2 in [12] lay within 80 to 100%.

In the case of `CCc1nc([C@H](C)NC(=O)c2cc(Cl)cc(S(C)(=O)=O)c2)n(-c2ccc(C#N)cn2)n1` [I-3], in [6], the mortality at 100 ppm turned out to be 100%. Moreover, the mortality at 100 g/ha in [5] and in assay [1] was 100% each time. The mortality at 500 g/ha in [5], in [1], in assay [2] and in assay [3] was 100% each time. In addition, the pest or weed control at 100 g/ha in assay [7] amounted to 100%. In addition, the pest or weed control at 500 g/ha in assay [7] and in assay [4] was 100% throughout. In addition, the mortality at 4 ppm in assay [8] stood at 100%. The mortality at 20 mg/m2 in assay [11] was 80 to 100%. Moreover, the pest or weed control at 5 µg/cm2 in assay [9] was found to be 90%. The pest or weed control at 0.02 mg in assay [10] was found to be 100%.

On to `C[C@H](NC(=O)c1cc(C(F)(F)F)cc(S(C)(=O)=O)c1)c1nc(C2CC2)nn1-c1ccc(C#N)cn1` [I-64], for which the mortality at 100 g/ha in assay [5], in [1], in [2] and in [3] was 100% each time. This molecule showed a mortality at 4 ppm in assay [8] of 100%. Further, the pest or weed control at 100 g/ha in assay [4] is 100%. In addition, the mortality at 20 mg/m2 in assay [11] and in assay [12] was 80 to 100% in each case. In addition, in [12], the mortality at 4 mg/m2 lay within 80 to 100%.

Regarding `C[C@H](NC(=O)c1cc(OC(F)(F)F)cc(S(C)(=O)=O)c1)c1nc(C2CC2)nn1-c1ccc(C#N)cn1` [I-81], the results for the mortality at 100 g/ha in assay [5], in assay [1] and in [2] were 90%, 100% and 100%, respectively. Further, the mortality at 500 g/ha in assay [2] and in assay [3] was 100% each time. In assay [8], the mortality at 4 ppm was found to be 100%. Moreover, the pest or weed control at 100 g/ha in assay [4] stood at 100%. The mortality at 4 mg/m2 in [11] (surface concentration 4 mg/m^2, exposure 30 minutes) is 80 to 100%; in assay [12] it was 80 to 100%. The mortality at 20 mg/m2 in assay [12] was in the range of 80 to 100%.

For the origin of these results see patent publication US20260206761A1, “HETEROARYL-TRIAZOLE COMPOUNDS AS PESTICIDES” (Bayer Aktiengesellschaft, priority 2019, published 2026).
